The results in this text go back to publication PMC8229550 (Pharmaceuticals, 2021).

Data set [1] can be described thus: MTT cytotoxicity assay. Format: cell-based. To be noted: normal human adult dermal fibroblasts (HDFa). How it is done:
To determine the half-maximal cell toxicity concentration (CC50) to assess the compound toxicity, we prepared stock solutions of the test compounds in 10% DMSO with ddH2O and further diluted with DMEM to the working solutions. The cytotoxic effect of the tested compounds was evaluated in normal human adult dermal fibroblasts (HDFa) (Sigma-Aldrich, Dorset, UK) using the previously reported 3-(4,5-dimethylthiazol-2-yl)-2,5-diphenyltetrazolium bromide (MTT) method with slight adjustments. Briefly, 100 µL cells/well at a density of 3 × 10^5 cells/mL were placed in 96-well plates and then incubated in 5% CO2 for 24 h at 37 °C. After 24 h, different concentrations of the test compound(s) were added to the cells in triplicate. After another 24 h, the supernatant was removed, and cells were washed with sterile 1× PBS three times. Then, 20 µL of 5 mg/mL MTT stock solution was added to each well, and the plate was incubated at 37 °C for 4 h. The produced formazan crystals were dissolved in 200 µL of acidified isopropanol (0.04 M HCl in absolute isopropanol). After that, we measured the absorbance of formazan solutions at λmax 540 nm using a BioTek Lx800 microplate reader (BioTek Instrument Ltd., Bedfordshire, UK). […]

Data set [2] has as its target SARS-CoV-2 main protease (M^Pro) (Severe acute respiratory syndrome coronavirus 2, UniProt P0DTD1). The experiment in a line: biochemical.

Like-named read-outs stand apart in the source and are kept apart here.

`COC(=O)c1cc2cc(CCc3cc4c(o3)C(=O)c3c(O)c(OC)cc(OC)c3C4=O)c(O)c(O)c2c(=O)o1` [α-Rubromycin, α-rubromycin] came in with a CC50 at 24 h in data set [1] of 16.7 µM. Further, the Ki in data set [2] (0–250 µM substrate, 0–50 µM inhibitor, read-out: M^Pro inhibition constant Ki) worked out at 3.22 µM. Besides, the IC50 in data set [2] (fluorescence, 40 µM substrate, 4 h at 20 °C, read-out: M^Pro inhibitory activity IC50) is 5.4 µM.

Turning to `O=C(O)c1cc(=O)c2c(OCC(O)COc3cccc4oc(C(=O)O)cc(=O)c34)cccc2o1` [Cromoglicic acid, cromoglicic acid], in data set [1], the half-maximal cytotoxic concentration (CC50) at 24 h was more than 100 µM. Besides, in data set [2], it took 1.1 µM to reach half-maximal inhibition (IC50) and the Ki turned out to be 0.68 µM. For the same molecule, the “Potency relative to α-rubromycin (times more potent)” value in data set [2] (M^Pro inhibition, versus α-rubromycin) came out at 4.5 times.

For orientation: CC50 means the concentration that lowers cell viability or growth by half. The Ki is the equilibrium dissociation constant of an inhibitor or competing ligand from its target. The term IC50 denotes the midpoint of a concentration-inhibition curve.
